In patent publication US12616203B2, “Use of 3-isoxazolidinones compounds as selective herbicides” (FMC Corporation, priority 2014, dated 2026):

Assays:
Wild buckwheat = experiment: Ex11 PRE 2,4-DC + clomazone, % control 28 DAT, Colby; type: in vivo, Polygonum convolvulus
Description: The crop tested was Oilseed rape.
Additional treatments included applications of metazachlor (Butisan®, 43.1%) at 750 g ai/ha, napropamide (Devrinol DF®, 50%) at 1260 g, and dimethachlor (Teridox®, 48%) at 1000 g. […] Treatments were applied just after the planting of tall morningglory, wild mustard, common lambsquarters, Italian ryegrass, wild buckwheat, redroot pigweed, common chickweed, corn poppy, and oilseed rape.
Flats were watered and fertilized routinely after treatment application. Each treatment was replicated three times.

Velvetleaf = experiment: Ex33 PRE 2,4-DC + fluthiacet-methyl + pyroxasulfone, % control 28 DAT, Colby; type: in vivo, Abutilon theophrasti
Description: ANTHEM® (fluthiacet-methyl, 0.69% plus pyroxasulfone, 22.61%) was included as a standard at labeled rate, Fluthiacet-methyl at 4.9 g ai/ha and pyroxasulfone at 165 g ai/ha. […] The following weeds were screened, Palmer amaranth, Pennsylvania smartweed, velvetleaf, green foxtail, morningglory, Italian ryegrass, prickly sida, and yellow nutsedge. Crops screened were cotton, lentil, mung bean, bush bean, and cowpea. […] Thereafter flats were watered and fertilized routinely.

weeds; Wheat and Barley = experiment: Ex14 POST greenhouse; type: in vivo; conditions: 28 DAT, rate in the words
Description: The study further assessed post crop safety on Wheat and Barley.
Nonionic surfactant at 0.5% (v/v) was included with commercial standards application. No adjuvant was applied with any other treatments. All plant species were direct seeded into 3″ plastic pots using metro-mix as growth media. At treatment application common lambsquarters was 1.75″, common chickweed was 2″, wild mustard was 2.25″, wild oat was 5.5″, wild buckwheat was 2-5″, Italian ryegrass was 2-3″, wheat was 5.5″, and barley was 4.5″ in height. Plants were watered well before application and not watered 24 h after application. Plants were watered and fertilized routinely after treatment application. Each treatment was replicated four times.

[1] = test system: weeds; Corn (var. Viking); experiment: Ex15 PRE greenhouse; type: in vivo; conditions: rate in the words
Description: The weeds tested in this study were redroot pigweed (Amaranthus retroflexus, AMARE), Jimsonweed (Datura stramonium, DATST), black nightshade (Solanum nigrum, SOLNI), large crabgrass (Digitaria sanguinalis, DIGSA), Pennsylvania smartweed (Polygonum pensylvanicum, POLPY), horseweed (Conyza canadensis, ERICA), wild buckwheat (Polygonum convolvulus, POLCO). The crop tested was Corn (var. Viking).
To determine PRE efficacy and corn injury, five rates of each 2,4 DC (36.7% CS) and S-metolachlor (Dual II Magnum®, 82.4%) were applied either alone or as tank-mix. 2,4 DC was applied at 0, 125, 170, 210, or 250 g ai/ha and S-metolachlor was applied at 0, 267, 534, 801, or 1070 g ai/ha. Additional treatments included application of premix of pyroxasulfone plus fluthiacet-methyl (Anthem™ 23.3%) at 169.9 g ai/ha and tank-mix of mesotrione (Callisto®, 40%) at 123 g plus S-metolachlor at 1252 g. Treatments were applied just after the planting of large crabgrass, Jimsonweed, black nightshade, redroot pigweed, Pennsylvania smartweed, horseweed, wild buckwheat, and corn.
Flats were watered and fertilized routinely after treatment application. Each treatment was replicated three times. […] Corn injury was rated for bleaching and stunting.

weeds = experiment: Ex21 PRE greenhouse; type: in vivo; conditions: 28 DAT, weed and rate in the words
Description: 2,4 DC (36.7% CS) was applied PRE at 0, 125, 170, 210, or 250 g ai/ha alone or as a tank-mix with S-metolachlor (Dual II Magnum®, 82.4%) at 0, 267, 534, 801, or 1070 g ai/ha. Pyroxasulfone plus fluthiacet-methyl (Anthem™, 23.3%) applied at 169.9 g ai/ha, and the tank-mix of mesotrione (Callisto®, 40%) at 123 g plus S-metolachlor (Dual II Magnum®, 82.4%) at 1252 g were included as standards for comparison. […] Thereafter flats were watered and fertilized routinely. Each treatment was replicated three times.

weeds; Wheat and canola = experiment: Ex27 PRE greenhouse; type: in vivo; conditions: weed and rate in the words
Description: The weeds tested in this study were Italian ryegrass (Lolium perenne. multiflorum, LOLMU), wild mustard (Sinapis arvensis, SINAR), annual bluegrass (Poa annua POAAN), wild oat (Avena fatua, AVEFA), blackgrass (Alopecurus myosuroides, ALOMY), common lambsquarters (Chenopodium album […] (Phalaris minor, PHAMI), common chickweed (Stellaria media, STEME), corn poppy (Papaver rhoeas PAPRH). The crops tested were Wheat and canola. […] Treatments were applied before the emergence of Italian ryegrass, wild oat, blackgrass, littleseed canarygrass, common chickweed, common lambsquarters, corn poppy, wild mustard, annual bluegrass, canola, and wheat. […] Flats were watered and fertilized routinely after treatment application. […] Wheat and corn poppy were rated at 14 and 21 DAT only.

CC1(C)CON(Cc2ccc(Cl)cc2Cl)C1=O [2,4-DC, 2-(2,4-dichlorophenyl)methyl-4,4-dimethyl-3-isoxazolidinone]
X (Wild buckwheat; 2,4-DC alone 125 g ai/ha): 10%
X (Wild buckwheat; 2,4-DC alone 170 g ai/ha): 30%
X (Wild buckwheat; 2,4-DC alone 210 g ai/ha): 22%
X (Wild buckwheat; 2,4-DC alone 250 g ai/ha): 27%
X (Velvetleaf; 2,4-DC alone 31 g ai/ha): 7%
X (Velvetleaf; 2,4-DC alone 63 g ai/ha): 23%
X (Velvetleaf; 2,4-DC alone 125 g ai/ha): 27%
X (Velvetleaf; 2,4-DC alone 250 g ai/ha): 30%
X (Velvetleaf; 2,4-DC alone 375 g ai/ha): 89%
weed control / crop safety in words (weeds; Wheat and Barley): applied alone did not control any weed in the assay, and was safe at all rates on both wheat and barley
weed control / crop safety in words [1]: alone controlled large crabgrass at 170 g ai/ha or 250 g and it was safe on corn at all rate
weed control in words (weeds): applied alone controlled (≥85% injury) common chickweed at all rates, bamyardgrass at ≥210 g ai/ha, and green foxtail at 250 g
weed control in words (weeds; Wheat and canola): provided good control of blackgrass at 375 g; controlled Italian ryegrass at ≥125 g and common chickweed at all rates
